Measurements reported in patent publication US20020132812A1, “Oral hypoglycaemic agents” (priority 2000, published 2002).
Structures can show the parent of a compound that is named as a salt.

With `Oc1cc2c(c(C(CC3=NCCN3)c3ccccn3)c1)OCC2` (stereo not shown) (as salt: hydroiodid) [Example 30, 7-[2-(4,5-Dihydro-1H-imidazol-2-yl)-1-pyridin-2-yl-ethyl]-2,3-dihydro-benzofuran-5-ol] the melting point was 186 to 187 °C. With `C(/C1=NCCN1)=C(/c1cccc(C2OCCO2)c1)c1ccccn1` (as salt: fumarate) [Example 32, 2-[2-(4,5-Dihydro-1H-imidazol-2-yl)-1-(3-[1,3]dioxolan-2-yl-phenyl)-vinyl]-pyridine] the melting point was 98 to 98.5 °C. For `c1ccc(C(CC2=NCCN2)c2cccc(C3OCCO3)c2)nc1` (stereo not shown) (as salt: fumarate) [Example 33, 2-[2-(4,5-Dihydro-1H-imidazol-2-yl)-1-(3-[1,3]dioxolan-2-yl-phenyl)ethyl]pyridine], the melting point was 162 to 162.5 °C. In the case of `c1ccc(C(CC2=NCCN2)c2cccc3c2OCC3)nc1` (stereo not shown) (as salt: fumarate) [Example 40, 1-(2,3-Dihydro-7-benzofuranyl)-2-(4,5-dihydro-2-imidazolyl)-1-(2-pyridyl)-ethane], the melting point is reported as 166 to 167 °C. Compound `OCc1cccc(C(CC2=NCCN2)c2ccccn2)c1` (stereo not shown) (as salt: fumarate) [Example 35, 3-[2-(4,5-Dihydro-1H-imidazol-2-yl)-1-pyridin-2-yl-ethyl]-phenyl-methanol] has a melting point of 114 to 115 °C. `O=Cc1cccc(C(CC2=NCCN2)c2ccccn2)c1` (stereo not shown) (as salt: fumarate) [Example 34, 3-[2-(4,5-Dihydro-1H-imidazol-2-yl)-1-pyridin-2-yl-ethyl]-benzaldehyde] gave a melting point of 138 to 139 °C. With `FC(F)(F)c1cccc(C(CC2=NCCN2)c2ccc3ccccc3n2)c1` (stereo not shown) [Example 38, ethyl compound, 2-[2-(4,5-Dihydro-1H-imidazol-2-yl)-1-(3-trifluoromethyl-phenyl)-ethyl]-quinoline] the melting point was 92 to 93 °C. Work on `Nc1cc2c(c(C(CC3=NCCN3)c3ccccn3)c1)OCC2` (stereo not shown) [Example 41, 7-[2-(4,5-Dihydro-1H-imidazol-2-yl)-1-pyridin-2-yl-ethyl]-2,3-dihydro-benzofuran-5-ylamine] yielded a melting point of 143 to 144 °C. In the case of `Nc1cccc(C(CC2=NCCN2)c2ccccn2)c1` (stereo not shown) (as salt: fumarate) [Example 39, 3-[2-(4,5-Dihydro-1H-imidazol-2-yl)-1-pyridin-2-yl-ethyl]-phenylamine], the melting point is reported as 154 to 155 °C. For `FC(F)(F)c1cccc(/C(=C/C2=NCCN2)c2ccc3ccccc3n2)c1` [Example 38, vinyl compound, 2-[2-(4,5-Dihydro-1H-imidazol-2-yl)-1-(3-trifluoromethyl-phenyl)-vinyl]-quinoline], the melting point was 76.5 °C.
